The values that follow come from patent publication US5464617A, “β-lactam compounds” (Hoffmann-La Roche Inc., priority 1994, dated 1995).

Molecules are shown by their SMILES. Values after ≈ are worked out from the molar mass of the structure shown. Structures can show the parent of a compound that is named as a salt.

In test [1] the test system is E. coli 1346. Put plainly: Antibacterial activity of the products per se, serial dilution method in liquid medium (Test E). It counts as cell-based. Conditions: product per se; for MIC E. coli 1346 (E): test E; for MIC E. coli 1346: Table 3, liquid medium. From the text: The antibacterial activity of the products per se is illustrated on the basis of Table 3 hereinafter, the minimum inhibitory concentration […] in vitro against E. coli 1346 being determined using the serial dilution method in liquid medium: […]

The test system of test [2] is Citrobacter freundii 1982. Put plainly: MIC in vitro of a 1:4 combination of ceftriaxone with a compound of formula I (Test D). It counts as cell-based. To be noted: for MIC C. freundii 1982 (D): test D; for MIC C. freundii 1982: Table 2. The method, then: The minimum inhibitory concentration in vitro ([…]) of a 1:4 combination of ceftriaxone with a compound of formula I against Citrobacter freundii 1982 was measured and compiled in Table 2 hereinafter.

[3] abbreviates: Table 4, 1:4 combination of ceftriaxone with the compound.
The mark [4] stands for this setting: 1:4 combination of ceftriaxone with the compound.

Turning to `CC(=O)N1C[C@H]2CC(COC(=O)NC3CC3)=C(C(=O)O)N3C(=O)[C@@H]1[C@@H]23` [94(a), (1aS,3aR,6bR)-2-Acetyl-5-cyclopropylcarbamoyloxymethyl-1-oxo-1a,2,3,3a,4,6b-hexahydro-1H-2,6a-diazacyclobut[cd]indene-6-carboxylic acid sodium salt], in test [1] (Table 4), the “MIC E. coli 1346 (E)” value came to 2 µg/mL. Moreover, in test [2] (setting [3]), the “MIC C. freundii 1982 (D)” value was found to be 2 µg/mL.
On to `O=C(NC1CC1)OCC1=C(C(=O)O)N2C(=O)[C@@H]3[C@H]2[C@H](C1)CN3C(=O)C(F)(F)F` [94(b), (1aS,3aR,6bR)-5-Cyclopropylcarbamoyloxymethyl-1-oxo-2-trifluoroacetyl-1a,2,3,3a,4,6b-hexahydro-1H-2,6 a-diazacyclobut[cd]indene-6-carboxylic acid sodium salt], for which, in test [1] (Table 4), the “MIC E. coli 1346 (E)” value amounted to 2 µg/mL. For the same molecule, the “MIC C. freundii 1982 (D)” value in test [2] (setting [3]) was 1 µg/mL.
In the case of `CS(=O)(=O)OC1=C(C(=O)O)N2C(=O)[C@@H]3[C@H]2[C@H](C1)CN3C(=O)NC1CCSC1=O` (mixture of isomers) [9(f), (1aS,3aR,6bR)-5-Methylsulphonyloxy-1-oxo-2-[(R) and [(S)-2-oxo-tetrahydro-thien-3-ylcarbamoyl]-1a,2,3,3a,4,6b-hexahydro-1H-2,6a-diazacyclobut[cd]indene-6-carboxylic acid sodium salt], in test [1], the “MIC E. coli 1346” value turned out to be 32 µg/mL. In test [2] (setting [4]), the “MIC C. freundii 1982” value was 0.12 µg/mL.
Regarding `NC(=O)OCC1=C(C(=O)O)N2C(=O)[C@@H]3[C@H]2[C@H](C1)CN3C(=O)NCc1ccc(O)cc1` [27(h), (1aS,3aR,6bR)-5-Carbamoyloxymethyl-2-(4-hydroxybenzylcarbamoyl)-1-oxo-1a,2,3,3a,4,6b-hexahydro-1H-2,6a-diaza-cyclobut[cd]indene-6-carboxylic acid sodium salt], the “MIC E. coli 1346 (E)” value in test [1] (Table 4) is above 32 µg/mL. In test [2] (setting [3]), the “MIC C. freundii 1982 (D)” value is 0.25 µg/mL.
The like results for `CC(=O)N1C[C@H]2CC(CSc3nnc(C)s3)=C(C(=O)O)N3C(=O)[C@@H]1[C@@H]23` [65(a), (1aS,3aR,6bR)-2-Acetyl-5-(5-methyl-1,3,4-thiadiazol-2-ylsulphanylmethyl)-1-oxo-1a,2,3,3a,4,6b-hexahydro-1H-2,6a-diazacyclobut[cd]indene-6-carboxylic acid sodium salt] were, in that order, 0.5 µg/mL and 1 µg/mL.
The like results for `O=C(NCc1ccncc1)OCC1=C(C(=O)O)N2C(=O)[C@H]3NC[C@@H](C1)[C@H]32` [Example 99, (1aS,3aR,6bR)-1-Oxo-5-(pyridin-4-ylmethylcarbamoyloxymethyl)-1a,2,3,3a,4,6b-hexahydro-1H-2,6a-diazacyclobut[cd]indene-6-carboxylic acid trifluoroacetate] were, in that order, 4 µg/mL and 2 µg/mL.
`O=C(Cn1nnnc1SCC1=C(C(=O)O)N2C(=O)[C@H]3NC[C@@H](C1)[C@H]32)Nc1ccc(O)cc1` [Example 77, (1aS,3aR,6bR)-5-[1-(4-Hydroxy-phenylcarbamoylmethyl)-1H-tetrazol-5-ylsulphanylmethyl]-1-oxo-1a,2,3,3a,4,6b-hexahydro-1H-2,6a-diazacyclobut[cd]indene-6-carboxylic acid trifluoroacetate]: in test [1] (Table 4), the “MIC E. coli 1346 (E)” value came out at 2 µg/mL. In addition, the “MIC C. freundii 1982 (D)” value in test [2] (setting [3]) turned out to be 2 µg/mL.
As for `Cc1ccc(S(=O)(=O)OC2=C(C(=O)O)N3C(=O)[C@@H]4[C@H]3[C@H](C2)CN4C(=O)Nc2ccc(O)cc2)cc1` [9(i), (1aS,3aR,6bR)-2-(4-Hydroxy-phenylcarbamoyl)-5-(4-methyl-phenylsulphonyloxy)-1-oxo-1a,2,3,3a,4,6b-hexahydro-1H-2,6a-diazacyclobut[cd]indene-6-carboxylic acid sodium salt], the “MIC E. coli 1346” value in test [1] came to 16 µg/mL. For the same molecule, the “MIC C. freundii 1982” value in test [2] (setting [4]) stood at 2 µg/mL.
For the molecule `CC(=O)OCC1=C(C(=O)O)N2C(=O)[C@@H]3[C@H]2[C@H](C1)CN3C(C)=O` [25(c), (1aS,3aR,6bR)-5-Acetoxymethyl-2-acetyl-1-oxo-1a,2,3,3a,4,6b-hexahydro-1H-2,6a-diazacyclobut[cd]indene-6-carboxylic acid sodium salt], in test [1] (Table 4), the “MIC E. coli 1346 (E)” value was 4 µg/mL. Besides, the “MIC C. freundii 1982 (D)” value in test [2] (setting [3]) came to 1 µg/mL.
Regarding `NC(=O)Cn1nnnc1SCC1=C(C(=O)O)N2C(=O)[C@@H]3[C@H]2[C@H](C1)CN3C=O` [70(c), (1aS,3aR,6bR)-5-(1-Carbamoylmethyl-1H-tetrazol-5-ylsulphanylmethyl)-2-formyl-1-oxo-1a,2,3,3a,4,6b-hexahydro-1H-2,6a-diazacyclobut[cd]indene-6-carboxylic acid sodium salt], the “MIC E. coli 1346 (E)” value in test [1] (Table 5, particularly preferred products) amounted to 1 µg/mL. Also, the “MIC C. freundii 1982 (D)” value in test [2] (Table 5, particularly preferred products, 1:4 combination with ceftriaxone) was determined as 0.25 µg/mL.
For `CS(=O)(=O)N1C[C@H]2CC(COC(N)=O)=C(C(=O)O)N3C(=O)[C@@H]1[C@@H]23` [58(c), (1aS,3aR,6bR)-5-Carbamoyloxymethyl-2-methylsulphonyl-1-oxo-1a,2,3,3a,4,6b-hexahydro-1H-2,6a-diazacyclobut[cd]indene-6-carboxylic acid sodium salt], the “MIC E. coli 1346 (E)” value in test [1] (Table 4) was 0.5 µg/mL. In addition, in test [2] (setting [3]), the “MIC C. freundii 1982 (D)” value worked out at 0.5 µg/mL.
With `Cc1nnc(SCC2=C(C(=O)[O-])N3C(=O)[C@@H]4[C@H]3[C@H](C2)CN4C(=O)C[n+]2cccc(C(N)=O)c2)s1` [65(d), (1aS,3aR,6bR)-2-(3-Carbamoyl-pyridin-1-ylioacetyl)-5-(5-methyl-1,3,4-thiadiazol-2-ylsulphanylmethyl)-1-oxo-1a,2,3,3a,4,6b-hexahydro-1H-2,6a-diazacyclobut[cd]indene-6-carboxylic acid sodium salt], in test [1] (Table 4), the “MIC E. coli 1346 (E)” value was 16 µg/mL. For the same molecule, in test [2] (setting [3]), the “MIC C. freundii 1982 (D)” value amounted to 2 µg/mL.
The like results for `NC(=O)OCC1=C(C(=O)O)N2C(=O)[C@@H]3[C@H]2[C@H](C1)CN3C(=O)NCCc1cccs1` [27(g), (1aS,3aR,6bR)-5-Carbamoyloxymethyl-1-oxo-2-(2-thiophen-2-yl-ethylcarbamoyl)-1a,2,3,3a,4,6b-hexahydro-1H-2,6a-diazacyclobut[cd]indene-6-carboxylic acid sodium salt] were, in that order, above 32 µg/mL and 0.5 µg/mL.
The matching figures for `C=CC1=C(C(=O)O)N2C(=O)[C@@H]3[C@H]2[C@H](C1)CN3C(=O)Nc1ccc(O)cc1` [46(a), (1aS,3aR,6bR)-2-(4-Hydroxy-phenylcarbamoyl)-1-oxo-5-vinyl-1a,2,3,3a,4,6b-hexahydro-1H-2,6a-diazacyclobut[cd]indene-6-carboxylic acid sodium salt]: 64 µg/mL and 1 µg/mL.
The like results for `CNC(=O)Cn1nnnc1SCC1=C(C(=O)O)N2C(=O)[C@@H]3[C@H]2[C@H](C1)CN3C(=O)C(F)(F)F` [74(b), (1aS,3aR,6bR)-5-(1-Methylcarbamoylmethyl-1H-tetrazol-1-ylsulphanylmethyl)-1-oxo-2-trifluoroacetyl-1a,2,3,3a,4,6b-hexahydro-1H-2,6a-diazacyclobut[cd]indene-6-carboxylic acid sodium salt] were, in that order, 1 µg/mL and 1 µg/mL.
For the molecule `C=CCOC(=O)N1C[C@H]2OC(CSc3nnnn3C)=C(C(=O)O)N3C(=O)[C@@H]1[C@@H]23` [29(e) Byproduct], the “MIC E. coli 1346 (E)” value in test [1] (Table 4) is 4 µg/mL (≈ 9.79 µM). Besides, the “MIC C. freundii 1982 (D)” value in test [2] (setting [3]) came to 1 µg/mL.
The matching figures for `NC(=O)Cn1nnnc1SCC1=C(C(=O)O)N2C(=O)[C@H]3NC[C@@H](C1)[C@H]32` [Example 69, (1aS,3aR,6 bR)-5-(1-Carbamoylmethyl-1H-tetrazol-5-ylsulphanylmethyl)-1-oxo-1a,2,3,3a,4,61>hexahydro-1H-2,6a-diazacyclobut[cd]indene-6-carboxylic acid trifluoroacetate]: 2 µg/mL and 0.5 µg/mL.
The matching figures for `O=C(O)C1=C(CSc2nnnn2CC(=O)N2CCOCC2)S[C@@H]2CN[C@@H]3C(=O)N1[C@@H]32` [40(g), (1aS,3aR,6bS)-5-[1-(2-Morpholin-4-yl-2-oxo-ethyl)-1H-tetrazol-5-ylsulphanylmethyl]-1-oxo-4-thia-1,1a,2,3,3a,6b-hexahydro-2,6a-diazacyclobut[cd]indene-6-carboxylic acid]: above 32 µg/mL and 4 µg/mL.
The matching figures for `NC(=O)OCC1=C(C(=O)O)N2C(=O)[C@@H]3[C@H]2[C@H](C1)CN3C(=O)CSc1nnc(N)s1` [58(f), (1aS,3aR,6bR)-2-(5-Amino-1,3,4-thiadiazol-2-ylsulphanylacetyl)-5-carbamoyloxymethyl-1-oxo-1a,2,3,3a,4,6b-hexahydro-1H-2,6a-diazacyclobut[cd]indene-6-carboxylic acid sodium salt]: 8 µg/mL and 0.12 µg/mL.
For `CC(=O)N1C[C@H]2CC(CSc3nnc(N)s3)=C(C(=O)O)N3C(=O)[C@@H]1[C@@H]23` [19(i), (1aS,3aR,6bR)-2-Acetyl-5-(5-amino-1,3,4-thiadiazol-2-ylsulphanylmethyl)-1-oxo-1a,2,3,3a,4,6b-hexahydro-1H-2,6a-diazacyclobut[cd]indene-6-carboxylic acid sodium salt], the “MIC E. coli 1346 (E)” value in test [1] (Table 4) came to 0.5 µg/mL. Moreover, the “MIC C. freundii 1982 (D)” value in test [2] (setting [3]) is 1 µg/mL.
The matching figures for `O=C(O)C1=C(CSc2ncccn2)C[C@@H]2CN[C@@H]3C(=O)N1[C@H]23` [Example 71, (1aS,3aR,6bR)-1-Oxo-5-(pyrimidin-2-ylsulphanylmethyl)-1a,2,3,3a,4,6b-hexahydro-1H-2,6a-diazacyclobut[cd]indene-6-carboxylic acid trifluoroacetate]: 8 µg/mL and 2 µg/mL.
